{
  "source": "patent US9476892B2",
  "about": "“Composition and method for measuring thallium influx and efflux” (priority 2007, dated 2016)",
  "origin": "cited, not measured here",
  "conditions": "background statement, poorly soluble",
  "data": [
    {"compound": "[Cl][Tl]", "note": "[thallium chloride]", "values": [
      {"measurement": "concentration at which thallium chloride precipitates out of solution", "result": "≥ 4500", "unit": "µM"}
    ]}
  ]
}
